Source: article PMC12165799, “Antimicrobial peptide developed with machine learning sequence optimization targets drug resistant Staphylococcus aureus in mice” (The Journal of Clinical Investigation, 2025)
≈ marks a conversion by molar mass, not a printed value. Where two headings read alike, the source gives them in different places.

Columns and labels:
[1] = tested on: S. aureus MW2; experiment: Minimal inhibitory concentration (MIC) assay, broth microdilution; type: cell-based, Staphylococcus aureus; settings: Staphylococcus aureus
Procedure: 300 Synthesis of peptides
302 Piscataway, NJ, USA).
305 Minimal inhibitory concentration (MIC) assay
We made serial dilutions of 10×
We determined the MIC using OD600
Accordingly, we added 150 mM NaCl,
319 established protocol (5).

[2] = tested on: MRSA (S. aureus MW2) biofilm; experiment: Biofilm viability assay on solid support (MW2); type: cell-based, Staphylococcus aureus; settings: S. aureus MW2, 10 μg/ml, 24 h in PBS
[3] = tested on: S. aureus MW2 biofilm formation; settings: 24 hours
Procedure: 349 Prevention of S. aureus MW2 biofilm formation
350 We evaluated the ability of the citropin 1.1-derived peptides to inhibit biofilm formation
351 following an established protocol with modifications (5). In short, we prepared exponential
352 cultures of S. aureus MW2 (adjusted to OD600 = 0.01) in TSB medium (supplemented with 0.2%
353 glucose) from overnight cultures. We added 90 µl of the bacterial culture to 10 µl of serially diluted
354 10× peptide solution in flat-bottomed 96-well polystyrene microtiter plates (Cat no. Corning 3595,
We used TSB medium containing
356 bacteria with water as the positive control, while TSB media with sterile water served as the
357 negative control. After incubation, we carefully removed the TSB medium and washed the wells
358 with PBS (Gibco, MD, USA) to remove loosely attached planktonic cells. We quantified the
359 biomass by staining the biofilms with crystal violet following an established protocol and
360 quantitated the concentration of peptide that inhibits 50% of biofilm formation (MBIC50)(8). We
361 measured the live cell count of the biofilms using XTT dye [2,3-bis(2-methyloxy-4-nitro-5-
362 sulfophenyl)-2H-tertazolium-5-carboxanilide] (ATCC, VA, USA).

[4] = tested on: VRSA (S. aureus VRS1) biofilm; experiment: Biofilm viability assay on solid support (VRS1); type: cell-based, Staphylococcus aureus; settings: S. aureus VRS1, 10 μg/ml, 24 h in PBS
[5] = tested on: S. aureus MW2 membrane; experiment: Propidium iodide-based membrane permeability; type: cell-based, Staphylococcus aureus; settings: S. aureus MW2, 60 minutes
Procedure: 484 min at room temperature in the dark based on a previously established protocol (8). We added 90
485 µl of the dye/bacteria mixture to 10 μl of serially diluted 10× peptide concentration in black, 96-
486 well plates (Cat. no. 3904, Corning, NY, USA) and incubated the plates for 1 hour at room
487 temperature. We measured the fluorescence with excitation and emission wavelengths of 485 nm
488 and 525 nm, respectively in endpoint assay mode using a SpectraMax i3x (Molecular Devices,
489 CA, USA) fluorescence reader.
490 Propidium iodide-based membrane permeability
491 We used a propidium iodide (Thermo Fisher Scientific, MA, USA) fluorescence-based
492 bacterial permeation assay to establish membrane-oriented interactions with the designed peptides
493 based on a previously established protocol (8). We prepared exponential phase S. aureus MW2
494 bacteria and diluted to OD600 = 0.4 in PBS. We added PI dye (final concentration = 2 µM) to the
495 bacteria in 1:10 serial dilutions in black, 96-well plates (Cat. no. 3904, Corning, NY, USA) and
496 incubated the plates for 1 hour at room temperature. We then measured the fluorescence with an
497 excitation wavelength of 584 nm and an emission wavelength of 620 nm in endpoint assay mode
498 using a SpectraMax i3x (Molecular Devices, CA, USA) fluorescence reader.
501 To determine the ATP leakage potential of the peptides, we employed a luciferase-based
502 assay(18). In brief, we washed exponential phase of S. aureus MW2 bacteria three times with PBS
503 (pH 7.4) and adjusted the washed cells to OD600 = 0.4 in PBS. Following treatment of the bacteria
504 with 32 µg/ml of CIT-8 peptide at 37°C for 30 min, we centrifuged the cells at 14,000× g for 5
505 min. We transferred 50 µl of each supernatant fraction to black, clear-bottom, 96-well plates

## CN[C@H](CC(C)C)C(=O)N[C@H]1C(=O)N[C@@H](CC(N)=O)C(=O)N[C@H]2C(=O)N[C@H]3C(=O)N[C@H](C(=O)N[C@H](C(=O)O)c4cc(O)cc(O)c4-c4cc3ccc4O)[C@H](O)c3ccc(c(Cl)c3)Oc3cc2cc(c3O[C@@H]2O[C@H](CO)[C@@H](O)[C@H](O)[C@H]2O[C@H]2C[C@](C)(N)[C@H](O)[C@H](C)O2)Oc2ccc(cc2Cl)[C@H]1O [Vancomycin, reference compound]
[1]; MW2, 18 h, read-out: MIC SA
  MIC: ≤ 0.125 µg/mL
[1]; read-out: MIC + MgSO4 (1 mM), S. aureus MW2, TSB + 1 mM MgSO4
  MIC: ≤ 1 µg/mL
[1]; read-out: MIC + human serum (10%), S. aureus MW2, TSB + 10% human serum
  MIC: ≤ 1 µg/mL
[1]; S. aureus MW2, TSB + 8 μM ZnSO4, read-out: MIC + ZnSO4 (8 μM)
  MIC: ≤ 1 µg/mL
[1]; S. aureus MW2, TSB + 2.5 mM CaCl2, read-out: MIC + CaCl2 (2.5 mM)
  MIC: ≤ 1 µg/mL
[1]; S. aureus MW2, TSB + 150 mM NaCl, read-out: MIC + NaCl (150 mM)
  MIC: ≤ 1 µg/mL
[1]; S. aureus MW2, TSB + 5% human serum, read-out: MIC + human serum (5%)
  MIC: ≤ 1 µg/mL
[1]; S. aureus MW2, TSB, read-out: MIC, Medium only
  MIC: 1 µg/mL (≈ 0.69 µM)
[2]; replicate 1
  Bacterial load of 24 hour established biofilm on solid membrane: 160000000
[2]; replicate 2
  Bacterial load of 24 hour established biofilm on solid membrane: 18000000
[2]; replicate 3
  Bacterial load of 24 hour established biofilm on solid membrane: 28000000
[2]; replicate 4
  Bacterial load of 24 hour established biofilm on solid membrane: 40000000
[2]; replicate 5
  Bacterial load of 24 hour established biofilm on solid membrane: 20000000
[2]; replicate 6
  Bacterial load of 24 hour established biofilm on solid membrane: 60000000
[3]; 4 μg/ml, replicate 1
  Biofilm formation, biomass (crystal violet), percentage of untreated: 8.955
  Biofilm formation, live-cell viability (XTT), percentage of untreated: -0.6369
[3]; 4 μg/ml, replicate 2
  Biofilm formation, biomass (crystal violet), percentage of untreated: 10.0268
  Biofilm formation, live-cell viability (XTT), percentage of untreated: -0.3259
[3]; 4 μg/ml, replicate 3
  Biofilm formation, biomass (crystal violet), percentage of untreated: 18.3626
  Biofilm formation, live-cell viability (XTT), percentage of untreated: -0.3777
[3]; 8 μg/ml, replicate 1
  Biofilm formation, biomass (crystal violet), percentage of untreated: 8.8836
  Biofilm formation, live-cell viability (XTT), percentage of untreated: -0.674
[3]; 8 μg/ml, replicate 2
  Biofilm formation, biomass (crystal violet), percentage of untreated: 11.1462
  Biofilm formation, live-cell viability (XTT), percentage of untreated: -0.4592
[3]; 8 μg/ml, replicate 3
  Biofilm formation, biomass (crystal violet), percentage of untreated: 16.9574
  Biofilm formation, live-cell viability (XTT), percentage of untreated: -0.4518
[3]; 16 μg/ml, replicate 1
  Biofilm formation, biomass (crystal violet), percentage of untreated: 9.955
  Biofilm formation, live-cell viability (XTT), percentage of untreated: -0.5851
[3]; 16 μg/ml, replicate 2
  Biofilm formation, biomass (crystal violet), percentage of untreated: 11.9559
  Biofilm formation, live-cell viability (XTT), percentage of untreated: -0.437
[3]; 16 μg/ml, replicate 3
  Biofilm formation, biomass (crystal violet), percentage of untreated: 14.6234
  Biofilm formation, live-cell viability (XTT), percentage of untreated: -0.4148
[3]; 32 μg/ml, replicate 1
  Biofilm formation, biomass (crystal violet), percentage of untreated: 10.1935
  Biofilm formation, live-cell viability (XTT), percentage of untreated: -0.4962
[3]; 32 μg/ml, replicate 2
  Biofilm formation, biomass (crystal violet), percentage of untreated: 10.384
  Biofilm formation, live-cell viability (XTT), percentage of untreated: -0.5555
[3]; 32 μg/ml, replicate 3
  Biofilm formation, biomass (crystal violet), percentage of untreated: 13.4802
  Biofilm formation, live-cell viability (XTT), percentage of untreated: -0.4073
[4]; replicate 1
  Bacterial load of 24 hour established biofilm on solid membrane: 40000000
[4]; replicate 2
  Bacterial load of 24 hour established biofilm on solid membrane: 40000000
[4]; replicate 3
  Bacterial load of 24 hour established biofilm on solid membrane: 60000000
[4]; replicate 4
  Bacterial load of 24 hour established biofilm on solid membrane: 60000000
[4]; replicate 5
  Bacterial load of 24 hour established biofilm on solid membrane: 20000000
[4]; replicate 6
  Bacterial load of 24 hour established biofilm on solid membrane: 20000000
[5]
  Propidium iodide fluorescence (membrane permeation): did not induce fluorescence
